What was measured:
CYP3A4 = molecular target: T1, CYP3A4 (Homo sapiens, UniProt P08684); assay: Biochemical assay for CYP enzyme inhibition, P450-Glo CYP3A4 Screening System; assay type: in vitro ADME
T1 construct: purchased Promega
Procedure: Test Example 5: Biochemical Assay for CYP Enzyme (Cytochrome P450) Inhibition
P450-Glo™ CYP3A4 Screening System, (Promega).
BMG PHERAstar FS Luminescent.
The experiments were carried out separately according to the instructions of the kits. The steps were as follows:
3.3. Inhibition Against CYP3A4:
Test group: The test compounds at different concentrations were added into a microplate, and Luciferin-IPA ([…]), K3PO4 (100 mM), and CYP3A4 (2 nM) were added into each well, and pre-incubated at room temperature for 10 min. Thereafter, an NADPH regeneration system was added. The mixture was reacted at room temperature for 30 min. Finally, an equal volume of detection buffer was added and incubated at room temperature for 20 min, followed by chemiluminescence detection.
Negative control group: The experimental method for the negative control group was the same as that for the test group, except that the test compound was not added.
Blank control group: The experimental method for the blank control group was the same as that for the test group, except that the test compound was not added and that CYP3A4 was replaced with CYP3A4 Membrance (2 nM).
Percentage inhibition=(1−(the chemiluminescent signal value of the test compound group at a certain test concentration−the chemiluminescent signal value of the blank control group)/(the chemiluminescent signal value of the negative control group−the chemiluminescent signal value of the blank control group))×100%.
When the percentage inhibition was between 30% and 80%, a single value or a value range of the half maximal inhibitory concentration (IC50) of the compound against the CYP enzyme was estimated based on the following equation: IC50=X×(1−percentage inhibition)/percentage inhibition, wherein X was the test concentration of the compound.

[1] = Pharmacokinetic (PK) studies in Balb/c mouse; assay type: in vivo; details: for AUC(0-t): read-out: AUClast; for half-life: read-out: T1/2 (converted)
Procedure: Test Example 7: Pharmacokinetic (PK) Studies in Balb/c Mouse
The compound of Example 12, Control Compound 1, Control Compound 2, and TNO-155 were administered to female Balb/c mice by intravenous injection (IV) and gavage (PO) respectively to estimate the pharmacokinetic properties. Dosing amounts for IV and PO routes were 1 mg/kg and 10 mg/kg, respectively. The solvent for IV route was 5% DMSO+5% Solutol+90% Saline, and the solvent for PO route was 0.5% MC (sodium methylcellulose). Blood was collected at various time points after IV and PO administration. The blood from the test groups of the compound of Example 12, Control Compound 1, and Control Compound 2 was anticoagulated using EDTA.K2 and preserved at −80° C. The blood from the test groups of TNO-155 was anticoagulated using EDTA.K2 and centrifuged to obtain plasma samples, and the plasma samples were preserved at −80° C.
The blood or plasma samples were subjected to protein precipitation and then to the LC-MS/MS analysis. WinNonlin 6.3 software was used to calculate the pharmacokinetic parameters by non-compartmental model, and the results were listed in Table 7 below.

[2] = Pharmacokinetic (PK) studies in beagle dog; assay type: in vivo; details: for AUC(0-t) / clearance / half-life: dog, male beagle dogs, plasma
Procedure: Test Example 8: Pharmacokinetic (PK) Studies in Beagle Dog
The compound of Example 12, Control Compound 1, Control Compound 2, and TNO-155 were administered to male beagle dogs by intravenous injection (IV) and gavage (PO) respectively to estimate the pharmacokinetic properties. Dosing amounts for IV and PO routes were 0.5 mg/kg and 2.5 mg/kg. The solvent for IV route was 5% DMSO+5% Solutol+90% Saline, and the solvent for PO route was 0.5% MC (sodium methylcellulose). Blood was collected at various time points after IV and PO administration. The blood was anticoagulated using EDTA.K2, and centrifuged to obtain plasma samples. The plasma samples were preserved at −80° C.
The plasma samples were subjected to protein precipitation and then to the LC-MS/MS analysis. WinNonlin 6.3 software was used to calculate the pharmacokinetic parameters by non-compartmental model, and the results were listed in Table 8 below.

NCI-H358 cell xenograft = assay: Tumor inhibition in NCI-H358 xenograft model; assay type: in vivo, Balb/c-nu mice; details: for TGI (%) (calculated by the tumor volume): oral, 21 days
Text: Test Example 10: Experiment on Tumor Inhibition in NCI-H358 Xenograft Model
A subcutaneous xenograft mouse model was established by subcutaneously inoculating human non-small cell lung cancer cells NCI-H358 into the right scapulae of Balb/c-nu mice. After tumor formation, the mice were orally administered to evaluate the in vivo drug efficacy of different test compounds.
The NCI-H358 cells were subjected to monolayer in vitro culture. The culture conditions were as follows: 10% fetal bovine serum was added into the RPMI 1640 medium, and the cells were cultured in an incubator at 37° C. in air containing 5% CO2. The cells were digested twice/trice a week with pancreatin-EDTA for passaging. When the cells were in exponential growth phase, the cells were harvested, counted, and inoculated.
Before inoculated with tumor cells, the experimental mice were identified sequentially with numbered ear spikes specific to mice.
Every of the mice were subcutaneously inoculated with 1×10^6 NCI-H358 cells (suspended in 0.1 ml PBS+Matrigel Matrix) into the right scapulae. It was predicted that the mean tumor volume on Day 7 would be ˜200 mm^3. Based on the measurement results on Day 7, thirty mice with regular shapes and uniform volumes of tumor were screened, randomly divided into 5 groups and administered according to the experimental scheme (the dosing regimen was as shown in Table 10 (lasting for 21 days)). The vehicle was 5% DMSO+5% Solutol+90% H2O.
Mice were weighed and tumor volumes were measured trice a week, and the data were recorded. The tumor volume (V) was calculated by the following equation: V=½×a×b^2, wherein a and b indicated the length and width, respectively.
The anti-tumor efficacy was evaluated by tumor growth inhibition TGI (%). […] When the tumor regressed, TGI (%) (tumor volume)=100%−(TVt−TV0)/TV0×100%.
If the tumor was smaller than its initial volume, i.e., Vt<V0, it was defined as partial regression (PR) of the tumor. If the tumor disappeared completely, it was defined as complete regression (CR) of the tumor.

EGFR (ErbB1) T790M L858R = molecular target: T2, EGFR (ErbB1) T790M L858R (Homo sapiens, UniProt P00533, L858R/T790M); assay: Kinase selectivity test (ThermoFisher); assay type: biochemical
T2 construct: purchased ThermoFisher USA (contract testing)
T2 sequence (P00533 25-1210 T790M/L858R): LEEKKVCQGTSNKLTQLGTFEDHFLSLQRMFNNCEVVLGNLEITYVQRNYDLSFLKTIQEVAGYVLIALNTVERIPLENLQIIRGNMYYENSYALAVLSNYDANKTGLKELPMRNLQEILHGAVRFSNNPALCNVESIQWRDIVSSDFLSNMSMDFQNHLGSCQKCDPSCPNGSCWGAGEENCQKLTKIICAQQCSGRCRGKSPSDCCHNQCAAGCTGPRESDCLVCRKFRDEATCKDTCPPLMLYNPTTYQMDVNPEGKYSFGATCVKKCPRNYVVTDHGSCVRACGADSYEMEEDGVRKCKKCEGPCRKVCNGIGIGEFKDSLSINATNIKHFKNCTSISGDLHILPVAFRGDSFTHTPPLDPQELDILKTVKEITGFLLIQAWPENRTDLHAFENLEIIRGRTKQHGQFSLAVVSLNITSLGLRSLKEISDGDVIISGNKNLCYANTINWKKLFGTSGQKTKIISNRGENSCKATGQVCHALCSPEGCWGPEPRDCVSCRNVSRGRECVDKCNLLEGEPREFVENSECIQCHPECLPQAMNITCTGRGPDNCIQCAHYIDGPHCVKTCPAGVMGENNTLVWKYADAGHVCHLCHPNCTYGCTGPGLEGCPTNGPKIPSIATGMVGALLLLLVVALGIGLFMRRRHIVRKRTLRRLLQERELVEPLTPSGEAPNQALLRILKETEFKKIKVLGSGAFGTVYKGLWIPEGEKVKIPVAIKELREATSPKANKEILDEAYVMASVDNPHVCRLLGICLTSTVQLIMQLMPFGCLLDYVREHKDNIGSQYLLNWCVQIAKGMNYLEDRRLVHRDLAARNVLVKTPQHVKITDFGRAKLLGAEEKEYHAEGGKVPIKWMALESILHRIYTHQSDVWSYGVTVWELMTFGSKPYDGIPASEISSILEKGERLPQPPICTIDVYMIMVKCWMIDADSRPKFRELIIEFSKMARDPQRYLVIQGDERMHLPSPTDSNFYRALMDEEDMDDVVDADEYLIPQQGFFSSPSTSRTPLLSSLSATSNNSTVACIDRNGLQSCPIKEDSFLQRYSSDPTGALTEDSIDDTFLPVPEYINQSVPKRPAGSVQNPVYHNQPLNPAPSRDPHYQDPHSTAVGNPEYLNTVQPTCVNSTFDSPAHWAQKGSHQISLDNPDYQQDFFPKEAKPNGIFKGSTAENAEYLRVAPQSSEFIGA
Procedure: (§1) Test Example 11: Kinase Selectivity Test
(§2) 1. Experimental Purpose: Tests for selectivity of the compounds of the present disclosure for a plurality of kinases were carried out to assess the safety risk of the compounds of the present disclosure.
(§3) 2. Test institution: ThermoFisher USA
(§4) 3. Testing methods: LanthaScreen binding, Z′-LYTE, Adapta
(§5) 4. Test targets: 100 targets in total

100 kinase targets = assay: Kinase selectivity test, whole panel (ThermoFisher); assay type: biochemical
Procedure: as §1, §2, §3, §4, §5

[3] = mouse, in vivo, female Balb/c mice, PO, 10 mg/kg, blood (TNO-155: plasma)
[4] = mouse, whole blood (TNO-155: plasma), female Balb/c mice, PO, 10 mg/kg, blood (TNO-155: plasma)

T1 sequence (P08684 whole entry): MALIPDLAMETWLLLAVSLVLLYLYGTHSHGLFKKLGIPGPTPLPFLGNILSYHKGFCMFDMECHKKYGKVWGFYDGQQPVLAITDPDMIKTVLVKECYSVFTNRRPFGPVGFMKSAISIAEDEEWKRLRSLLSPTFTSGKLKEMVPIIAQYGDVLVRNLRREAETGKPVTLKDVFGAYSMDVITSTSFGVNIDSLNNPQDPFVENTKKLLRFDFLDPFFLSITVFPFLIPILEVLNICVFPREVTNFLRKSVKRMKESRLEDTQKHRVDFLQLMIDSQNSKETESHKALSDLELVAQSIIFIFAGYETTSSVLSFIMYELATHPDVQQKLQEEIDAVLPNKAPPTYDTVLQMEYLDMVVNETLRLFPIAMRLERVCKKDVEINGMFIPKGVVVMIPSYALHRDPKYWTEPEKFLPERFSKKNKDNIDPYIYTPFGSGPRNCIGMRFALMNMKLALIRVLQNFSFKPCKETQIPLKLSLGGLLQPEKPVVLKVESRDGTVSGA

With `C[C@@H]1OCC2(CCN(c3ncc(Sc4ccnc(N5CC(C(C)(C)O)C5)c4Cl)nc3CO)CC2)[C@@H]1N` [Example 12, 2-(1-(4-(5-((3S,4S)-4-amino-3-methyl-2-oxa-8-azaspiro[4.5]decan-8-yl)-6-(hydroxymethyl)pyrazin-2-ylthio)-3-chloropyridin-2-yl)azetidin-3-yl)propan-2-ol] the IC50 (CYP3A4) was over 10 µM, the “pharmacokinetic properties (in words)” value ([1]; Balb/c mice, 1 mg/kg by injection and 10 mg/Kg by mouth) was “excellent pharmacokinetic properties” and the AUC(0-t) ([1]; mouse, in vivo, female Balb/c mice, IV, 1 mg/kg, blood (TNO-155: plasma)) was 2590 ng·h/mL. The clearance ([1]; mouse, in vivo, female Balb/c mice, IV, 1 mg/kg, blood (TNO-155: plasma), read-out: Cl) was 6.23 mL/min/kg, the AUC(0-t) [1, 3] was 12300 ng·h/mL and the half-life [1, 3] was 7.13 h. For the same compound, the “pharmacokinetic properties (in words)” value ([2]; beagle dog, 0.5 mg/kg by injection and 2.5 mg/Kg by mouth) was “excellent pharmacokinetic properties”, the AUC(0-t) ([2]; in vivo, IV, 0.5 mg/kg) was 3090 ng·h/mL and the clearance ([2]; in vivo, IV, 0.5 mg/kg) was 2.31 mL/min/kg. The AUC(0-t) ([2]; in vivo, PO, 2.5 mg/kg) was 11000 ng·h/mL, the half-life ([2]; in vivo, PO, 2.5 mg/kg) was 24.5 h and the “TGI (%) (calculated by the tumor volume)” value (NCI-H358 cell xenograft; 3 mpk/QD) was 84.35%. For the same compound, the “TGI (%) (calculated by the tumor volume)” value (NCI-H358 cell xenograft; 10 mpk/QD) was 93.14%, the “tumor inhibitory effect (in words)” value (NCI-H358 cell xenograft; oral administration for 21 consecutive days) was “remarkable tumor inhibitory effect” and the “Inhibition (%) Target 1” value (EGFR (ErbB1) T790M L858R) was 0%. For the same compound, the “Inhibition (%) Target 2” value (EGFR (ErbB1) T790M L858R) was 5%, the “Inhibition (%) Mean value” (EGFR (ErbB1) T790M L858R) was 2% and the “inhibitory effect on all of the 100 kinase targets” value (100 kinase targets; all 100 kinase targets) was “weak inhibitory effect”.
With `C[C@@H]1OCC2(CCN(c3cnc(Sc4ccnc(N)c4Cl)c(N)n3)CC2)[C@@H]1N` [TNO-155, reference compound] the Cl ([1]; female Balb/c mice, IV, 1 mg/kg, blood (TNO-155: plasma)) was 24 mL/min/kg, the AUC(0-t) ([1]; mouse, whole blood (TNO-155: plasma), female Balb/c mice, IV, 1 mg/kg, blood (TNO-155: plasma)) was 672 ng·h/mL and the AUC(0-t) [1, 4] was 7910 ng·h/mL. It also gave a half-life [1, 4] of 1.69 h, an AUC(0-t) ([2]; IV, 0.5 mg/kg) of 2350 ng·h/mL and a clearance ([2]; IV, 0.5 mg/kg) of 3.43 mL/min/kg. For the same compound, the AUC(0-t) ([2]; PO, 2.5 mg/kg) was 10100 ng·h/mL, the half-life ([2]; PO, 2.5 mg/kg) was 13.2 h and the “TGI (%) (calculated by the tumor volume)” value (NCI-H358 cell xenograft; 5 mpk/BID) was 68.59%. For the same compound, the “TGI (%) (calculated by the tumor volume)” value (NCI-H358 cell xenograft; 10 mpk/QD) was 58.49%, the “Inhibition (%) Target 1” value (EGFR (ErbB1) T790M L858R) was 81% and the “Inhibition (%) Target 2” value (EGFR (ErbB1) T790M L858R) was 77%. For the same compound, the “Inhibition (%) Mean value” (EGFR (ErbB1) T790M L858R) was 79%, the “inhibitory effect on the remaining 86 targets” value (100 kinase targets; 86 of the 100 kinase targets) was “weak inhibitory effect” and the “inhibitory effect on the above 14 kinase targets” value (100 kinase targets; the 14 kinases of the table) was “strong inhibitory effect”.
